Measured values as given in patent US12338214B2, “Bexarotene derivatives and their use in treating cancer” (DJ THERAPEUTICS LLC, priority 2018, dated 2025).

Experiments:
MV4;11 cells = test: Cell count activity in MV4;11 cells; type: cell-based, human; conditions: 5 days, FIG. 5
Experimental: (§1) NB4 cells or MV4;11 cells were grown in RPMI, 10% fetal bovine serum and plated at a density of 25,000 cells/mL in presence or absence of compound of the disclosure (dissolved in DMSO) for 5 days. Cells were counted manually on a light microscope using a hemocytometer and Trypan blue exclusion or on the Nexcelom Cellometer Auto 2000 using Cellometer Viastain AOPI staining solution (Nexcelom CS2-0106).

NB4 cells = test: Cell count activity in NB4 cells; type: cell-based, human; conditions: 5 days, FIG. 4
Experimental: as §1

Row | Compound | reduction in cell counts (MV4;11 cells) | reduction in cell counts (NB4 cells)
1 | CC1=C(/C=C/C(C)=C/C=C/C(C)=C/C(=O)O)C(C)(C)CCC1 [ATRA, all-trans retinoic acid] | dose dependent reduction in cell counts | 
2 | C=C(c1ccc(C(=O)O)cc1)c1cc2c(cc1C)C(C)(C)CCC2(C)C [bexarotene] |  | dose dependent reduction in cell counts
